# Source: the NIST ThermoML archive (doi:10.1016/j.tca.2016.05.007)
# ± gives the expanded uncertainty stated by the source.
# Experiments:
# [1] = Molar enthalpy of transition or fusion; conditions: Crystal; DSC
smiles,measurement,setting,value
"COc1ccc(C2(c3ccc(OC)c(C)c3)OC(=O)c3ccccc32)cc1C [3,3-bis(4-methoxy-3-methylphenyl)-1(3H)-isobenzofuranone]",Normal melting temperature,"Crystal, DTA",110.1 ± 0.4 °C
same,Glass transition temperature,"Glass, Adiabatic calorimetry",41.2 ± 0.1 °C
same,Molar enthalpy of transition or fusion,[1],6.67 ± 0.143 kcal/mol
